The source of these data is ChEMBL document CHEMBL2396574, “Design, synthesis and evaluation of retinoids with novel bulky hydrophobic partial structures” (Bioorg Med Chem, 2013).

Assay [1] concerns HL-60. The assay can be described thus: Induction of human HL60 cell differentiation into myeloid cells at 100 nM after 4 days by NBT reduction assay relative to control. It counts as functional.
For assay [2], the system named is HL-60. Put plainly: Induction of human HL60 cell differentiation into myeloid cells at 10 nM after 4 days by NBT reduction assay relative to control. Type of assay: functional.
Assay [3] has as its target T1, Retinoic acid receptor RXR-gamma (Homo sapiens) (UniProt P48443).
T1 sequence (whole entry): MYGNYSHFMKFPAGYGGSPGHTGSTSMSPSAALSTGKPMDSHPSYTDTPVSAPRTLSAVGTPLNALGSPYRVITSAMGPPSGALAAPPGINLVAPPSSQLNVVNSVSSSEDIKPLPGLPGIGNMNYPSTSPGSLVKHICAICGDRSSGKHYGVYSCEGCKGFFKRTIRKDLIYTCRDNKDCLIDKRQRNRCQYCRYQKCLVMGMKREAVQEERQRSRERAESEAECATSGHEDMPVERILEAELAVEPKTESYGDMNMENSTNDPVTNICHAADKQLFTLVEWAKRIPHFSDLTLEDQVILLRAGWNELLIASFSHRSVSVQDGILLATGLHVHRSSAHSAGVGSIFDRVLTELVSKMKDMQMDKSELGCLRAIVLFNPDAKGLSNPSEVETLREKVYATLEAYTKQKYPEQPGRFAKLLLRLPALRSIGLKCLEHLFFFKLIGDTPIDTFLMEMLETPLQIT
Put plainly: Transactivation of full-length RXRgamma (unknown origin) expressed in African green monkey COS1 cells at 1000 nM by luciferase reporter gene assay. Type of assay: cell-based. The following applies: COS-1. In general terms: In a reporter assay the amount or activity of a reporter protein is the signal.

Assay [4] concerns the target T2, Retinoic acid receptor RXR-beta (Homo sapiens) (UniProt P28702).
T2 sequence (whole entry): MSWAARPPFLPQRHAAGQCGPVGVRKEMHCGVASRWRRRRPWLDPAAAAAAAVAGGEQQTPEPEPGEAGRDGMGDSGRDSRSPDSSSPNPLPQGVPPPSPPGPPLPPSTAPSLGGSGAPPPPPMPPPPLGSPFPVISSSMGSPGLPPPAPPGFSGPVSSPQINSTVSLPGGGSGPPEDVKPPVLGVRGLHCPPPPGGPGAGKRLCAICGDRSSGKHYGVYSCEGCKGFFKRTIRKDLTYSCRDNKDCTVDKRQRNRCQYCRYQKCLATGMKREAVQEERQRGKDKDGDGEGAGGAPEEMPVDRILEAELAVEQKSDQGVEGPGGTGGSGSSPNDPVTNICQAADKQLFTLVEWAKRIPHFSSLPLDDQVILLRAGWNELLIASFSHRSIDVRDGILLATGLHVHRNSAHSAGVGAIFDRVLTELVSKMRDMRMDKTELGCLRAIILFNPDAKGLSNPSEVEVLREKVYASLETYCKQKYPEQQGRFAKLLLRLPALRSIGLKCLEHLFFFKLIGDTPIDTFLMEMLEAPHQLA
The assay can be described thus: Transactivation of full-length RXRbeta (unknown origin) expressed in African green monkey COS1 cells at 1000 nM by luciferase reporter gene assay. It counts as cell-based. The following applies: COS-1.

Assay [5] has as its target T3, Retinoic acid receptor gamma (Homo sapiens) (UniProt P13631).
T3 sequence (whole entry): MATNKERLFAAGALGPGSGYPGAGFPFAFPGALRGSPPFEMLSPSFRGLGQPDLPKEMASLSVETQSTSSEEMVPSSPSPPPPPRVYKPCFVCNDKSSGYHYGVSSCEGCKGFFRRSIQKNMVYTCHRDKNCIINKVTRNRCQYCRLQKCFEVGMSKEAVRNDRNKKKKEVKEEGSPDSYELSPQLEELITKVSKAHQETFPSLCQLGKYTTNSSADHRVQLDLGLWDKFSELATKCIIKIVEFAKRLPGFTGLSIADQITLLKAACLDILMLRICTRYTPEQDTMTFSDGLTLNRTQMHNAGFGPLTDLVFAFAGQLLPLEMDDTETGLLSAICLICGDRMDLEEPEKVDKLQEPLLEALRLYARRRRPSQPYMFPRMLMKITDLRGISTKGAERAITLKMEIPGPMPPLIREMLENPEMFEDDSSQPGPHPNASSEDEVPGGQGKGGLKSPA
The assay can be described thus: Transactivation of Gal4-fused RARgamma (unknown origin) expressed in African green monkey COS1 cells at 100 nM by luciferase reporter gene assay relative to DMSO-treated control. Type of assay: cell-based. To be noted: COS-1.

In assay [6] the target is T4, Retinoic acid receptor beta (Homo sapiens) (UniProt P10826).
T4 sequence (whole entry): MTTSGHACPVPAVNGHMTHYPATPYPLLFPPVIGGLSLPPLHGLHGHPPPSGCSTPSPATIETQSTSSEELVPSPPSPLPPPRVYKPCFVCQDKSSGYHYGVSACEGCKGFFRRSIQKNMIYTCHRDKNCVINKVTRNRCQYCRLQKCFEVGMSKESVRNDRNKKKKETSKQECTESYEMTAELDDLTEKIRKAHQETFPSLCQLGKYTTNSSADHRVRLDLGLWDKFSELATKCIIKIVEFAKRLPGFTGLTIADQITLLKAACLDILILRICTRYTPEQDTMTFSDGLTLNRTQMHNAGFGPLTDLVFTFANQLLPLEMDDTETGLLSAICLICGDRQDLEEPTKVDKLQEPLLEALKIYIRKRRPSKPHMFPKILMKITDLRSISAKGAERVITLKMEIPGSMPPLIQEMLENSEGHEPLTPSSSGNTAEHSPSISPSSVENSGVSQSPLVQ
Put plainly: Transactivation of Gal4-fused RARbeta (unknown origin) expressed in African green monkey COS1 cells at 100 nM by luciferase reporter gene assay relative to DMSO-treated control. The following applies: COS-1. It counts as cell-based.

Active and inactive are the calls of the source. No cut-off for these calls is given here.

`O=C(Nc1ccc(C(=O)O)c(Cl)c1)c1cc2c3c(c1)CCCC3CCC2`: the Activity amounted to 37% with HL-60 [1] and 16% in the assay with HL-60 [2]. Moreover, the result in assay [3] and in assay [4] was inactive. The fold change (FC) turned out to be 1 in assay [5] and 6 in assay [6].
As to `O=C(Nc1cc2c3c(c1)CCCC3CCC2)c1ccc(C(=O)O)nc1`, the result in assay [3] and in assay [4] was inactive. Besides, the fold change (FC) in assay [5] is 1.
Regarding `COc1cc(NC(=O)c2cc3c4c(c2)CCCC4(C)CCC3)ccc1C(=O)O`, the Activity was 17% in the assay with HL-60 [1] and 5% in the assay on HL-60 [2]. The result in assay [3] and in assay [4] was inactive. For the same compound, the values for the fold change (FC) in assay [5] and in assay [6] were 1 and 3, respectively.
For the compound `O=C(O)c1ccc(NC(=O)c2cc3c4c(c2)CCCCC4CCCC3)nc1`, the outcome in assay [3] and in assay [4] was inactive. For the same compound, the fold change (FC) was 56 in assay [5] and 45 in assay [6].
Take `O=C(O)c1ccc(NC(=O)c2cc3c4c(c2)CCCC4CCC3)nc1`: the Activity in the assay on HL-60 [1] is listed as 59%; in the assay with HL-60 [2] it was 54%. Further, the outcome in assay [3] and in assay [4] was inactive. Further, the fold change (FC) was determined as 20 in assay [5] and 40 in assay [6].
With `O=C(Nc1ccc(C(=O)O)nc1)c1cc2c3c(c1)CCCC3CCC2`, the result in assay [3] and in assay [4] was inactive. The compound further showed a fold change (FC) in assay [5] of 1.
With `O=C(O)c1ccc(C(=O)Nc2cc3c4c(c2)CCCC4CCC3)cc1`, the Activity in the assay with HL-60 [1] is 18%; with HL-60 [2], 7%. For the same compound, the outcome in assay [3] and in assay [4] was inactive. Moreover, the fold change (FC) in assay [5] was found to be 1; in assay [6] it was 5.
As for `O=C(Nc1ccc(C(=O)O)s1)c1cc2c3c(c1)CCCC3CCC2`, the outcome in assay [3] and in assay [4] was inactive. Also, in assay [5], the fold change (FC) is 1.
Consider `O=C(O)c1ccc(NC(=O)c2cc3c4c(c2)CCCC4CCC3)cc1`, for which the Activity in the assay with HL-60 [1] is 38%; with HL-60 [2] it was 27%. Moreover, the outcome in assay [3] and in assay [4] was inactive. In addition, the fold change (FC) in assay [5] was determined as 3; in assay [6], 18.
Take `O=C(O)c1ccc(C(=O)Nc2cc3c4c(c2)CCCC4CCC3)s1`: the result in assay [3] and in assay [4] was inactive. Further, the fold change (FC) in assay [5] was 1.
Regarding `CC12CCCc3cc(C(=O)Nc4ccc(C(=O)O)c(F)c4)cc(c31)CCC2`, the Activity in the assay on HL-60 [1] worked out at 29%; in the assay with HL-60 [2] it was 18%. Further, the outcome in assay [3] and in assay [4] was inactive. In addition, the values for the fold change (FC) in assay [5] and in assay [6] were 2 and 13, respectively.
The compound `CC12CCCc3cc(NC(=O)c4ccc(C(=O)O)cc4)cc(c31)CCC2` gave an Activity with HL-60 [2] of 12%. In addition, the outcome in assay [3] and in assay [4] was inactive. The fold change (FC) turned out to be 1 in assay [5] and 12 in assay [6].
As for `CC12CCCc3cc(NC(=O)c4ccc(C(=O)O)cn4)cc(c31)CCC2`, the Activity is 16% in the assay on HL-60 [1] and 5% in the assay on HL-60 [2]. Moreover, the outcome in assay [3] and in assay [4] was inactive. Further, the fold change (FC) was determined as 2 in assay [5] and 26 in assay [6].
For `O=C(Nc1ccc(C(=O)O)c(F)c1)c1cc2c3c(c1)CCCC3CCC2`, the Activity in the assay with HL-60 [1] came out at 60%; with HL-60 [2], 49%. Besides, the outcome in assay [3] and in assay [4] was inactive. Further, the values for the fold change (FC) in assay [5] and in assay [6] were 2 and 7, respectively.
For the compound `CC1(C)CCC(C)(C)c2cc(NC(=O)c3ccc(C(=O)O)cc3)ccc21` [TAMIBAROTENE], the Activity in the assay with HL-60 [1] is reported as 68%; with HL-60 [2], 60%. In addition, the result in assay [3] and in assay [4] was inactive.
Regarding `CC12CCCc3cc(C(=O)Nc4ccc(C(=O)O)c(Cl)c4)cc(c31)CCC2`, the results for the Activity with HL-60 [1] and with HL-60 [2] were 21% and 19%, respectively. Further, the outcome in assay [3] and in assay [4] was inactive. Besides, the fold change (FC) in assay [5] is 1; in assay [6] it was 8.
On to `CC12CCCc3cc(C(=O)Nc4ccc(C(=O)O)s4)cc(c31)CCC2`, for which the outcome in assay [3] and in assay [4] was inactive. The fold change (FC) in assay [5] and in assay [6] was 1 in each case.
With `CC1=C(/C=C/C(C)=C/C=C/C(C)=C/C(=O)O)C(C)(C)CCC1` [TRETINOIN], the Activity with HL-60 [1] is 71%; with HL-60 [2] it was 46%. In addition, the result in assay [3] and in assay [4] was inactive.
For the compound `CC12CCCc3cc(NC(=O)c4ccc(C(=O)O)s4)cc(c31)CCC2`, the outcome in assay [3] and in assay [4] was inactive. Moreover, the fold change (FC) in assay [5] amounted to 1.
As for `CC12CCCc3cc(NC(=O)c4ccc(C(=O)O)nc4)cc(c31)CCC2`, the outcome in assay [3] and in assay [4] was inactive. In assay [5], the fold change (FC) was found to be 1.
Regarding `COc1cc(NC(=O)c2cc3c4c(c2)CCCCC4CCCC3)ccc1C(=O)O`, the result in assay [3] and in assay [4] was inactive. Also, the fold change (FC) worked out at 2 in assay [5] and 1 in assay [6].
As for `CC12CCCc3cc(C(=O)Nc4ccc(C(=O)O)cc4)cc(c31)CCC2`, the Activity in the assay with HL-60 [2] stood at 36%. In addition, the outcome in assay [3] and in assay [4] was inactive. Also, the fold change (FC) was found to be 4 in assay [5] and 20 in assay [6].
In the case of `CC12CCCc3cc(C(=O)Nc4ccc(C(=O)O)nc4)cc(c31)CCC2`, the result in assay [3] and in assay [4] was inactive. Further, in assay [5], the fold change (FC) was 1.
Take `O=C(O)c1ccc(C(=O)Nc2cc3c4c(c2)CCCCC4CCCC3)nc1`: the outcome in assay [3] and in assay [4] was inactive. For the same compound, the figures for the fold change (FC) in assay [5] and in assay [6] were 2 and 17, respectively.
